According to patent US11492346B2, “Benzisoxazole sulfonamide derivatives” (Pfizer Inc., priority 2019, dated 2022):
Where two headings read alike, the source gives them in different places.

Experiments:
[1] = target: KAT8 (Homo sapiens (Human), UniProt Q9H7Z6); experiment: KAT assay (SAMDI mass spectrometry), KAT8; format: biochemical
[2] = target: KAT5 (Homo sapiens (Human), UniProt Q92993); experiment: KAT assay (SAMDI mass spectrometry), KAT5; format: biochemical;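 also: Baculovirus-expressed KAT5 acetylating a histone H4 peptide at room temperature, read as percent conversion to product, Ki from a Morrison tight-binding competitive fit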
[3] = target: KAT6B (Homo sapiens (Human), UniProt Q8WYB5); experiment: KAT assay (SAMDI mass spectrometry), KAT6B; format: biochemical
[4] = target: KAT7 (Homo sapiens (Human), UniProt O95251); experiment: KAT assay (SAMDI mass spectrometry), KAT7; format: biochemical;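 also: Baculovirus-expressed enzyme acetylating a histone peptide at room temperature, percent conversion from product and substrate peak areas, Ki from a Morrison tight-binding competitive fit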
[5] = target: KAT6A (Homo sapiens (Human), UniProt Q92794); experiment: KAT assay (SAMDI mass spectrometry), KAT6A; format: biochemical;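 also: Baculovirus-expressed KAT6A acetylating histone H3 (1-21) peptide (2 µM), 30-60 min at room temperature, % product conversion fitted to Morrison equation for tight-binding competitive inhibitors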
[6] = system: histone H2A.Z Lysine 7 acetylation in U2OS cells; experiment: H2A.Z Lysine 7 Acetylation Biomarker Assay; format: cell-based; details: Homo sapiens, serum free medium, 24 hours incubation
Experimental: Compounds were tested for their ability to inhibit the histone H2A.Z Lysine 7 acetylation marker in the following assay: The cell line U2OS was seeded at a density of 3,000 cells per well in 384-well optical quality tissue culture plates in RPMI medium supplemented with 10% foetal bovine serum and 10 mM Hepes. The cells were allowed to adhere for 24 hours under standard culture conditions (37 degree Celsius, 5% CO2). At the end of this period the cells were washed with serum free medium. […] 2018, at 30 μM concentration. After incubation for 24 hours, the cells were fixed with 4% formaldehyde in PBS for 15 minutes at room temperature, washed with phosphate buffer saline and blocked with blocking buffer containing 0.2% TritonX100 and 2% BSA. Anti-H2A.ZK7ac specific antibody (Abcam) in blocking buffer was added and incubated overnight at 4 degree Celsius. After washing, a secondary antibody labelled with AlexaFluor 488 dye (ThermoFisher) and Hoechst 33342 (1 μg/mL, Life Technologies) were added for 2 hours incubation at room temperature. Plates were washed and read on a PerkinElmer Opera HCS high content imaging platform. Using a Columbus image analysis pipeline, individual nuclei were located by Hoechst 33342 stain and the acetylation level was calculated from the AlexaFluor 488-related intensity in the same area.

[7] = target: MOZ-KAT6A (Homo sapiens (Human), UniProt Q92794); experiment: biochemical
[8] = target: TIP60-KAT5 (Homo sapiens (Human), UniProt Q92993); experiment: biochemical
[9] = target: HBO1-KAT7 (Homo sapiens (Human), UniProt O95251); experiment: biochemical
[10] = system: histone H3 Lysine 14 acetylation in U2OS cells; experiment: Histone H3 Lysine 14 Acetylation Biomarker Assay; format: cell-based; details: Homo sapiens, serum free medium, 24 hours incubation
Experimental: Compounds were tested for their ability to inhibit acetylation of the histone H3 Lysine 14 marker in the following assay:
The cell line U2OS was seeded at a density of 3,000 cells per well in 384-well optical quality tissue culture plates in RPMI medium supplemented with 10% foetal bovine serum and 10 mM Hepes. The cells were allowed to adhere for 24 hours under standard culture conditions (37 degree Celsius, 5% CO2). At the end of this period the cells were washed with serum free medium. […] After incubation for 24 hours, the cells were fixed with 4% formaldehyde in PBS for 15 minutes at room temperature, washed with phosphate buffer saline and blocked with blocking buffer containing 0.2% TritonX100 and 2% BSA. Anti-H3K14ac specific antibody (Cell Signalling Technologies) in blocking buffer was added and incubated overnight at 4 degree Celsius. After washing, a secondary antibody labelled with AlexaFluor 488 dye (ThermoFisher) and Hoechst 33342 (1 μg/mL, Life Technologies) were added for 2 hours incubation at room temperature. Plates were washed and read on a PerkinElmer Opera HCS high content imaging platform. Using a Columbus image analysis pipeline, individual nuclei were located by Hoechst 33342 stain and the acetylation level was calculated from the AlexaFluor 488-related intensity in the same area.

[11] = read-out: KAT8 Ki at 1 μM AcCoA
[12] = read-out: KAT5 Ki at 1 μM AcCoA
[13] = 25 μM AcCoA, read-out: KAT6b Ki at 25 μM AcCoA
[14] = read-out: KAT7 Ki at 1 μM AcCoA
[15] = read-out: KAT6a Ki at 1 μM AcCoA, 1 μM AcCoA
[16] = read-out: KAT6a Ki at 10 μM AcCoA, 10 μM AcCoA

KAT7, sequence (O95251 whole entry): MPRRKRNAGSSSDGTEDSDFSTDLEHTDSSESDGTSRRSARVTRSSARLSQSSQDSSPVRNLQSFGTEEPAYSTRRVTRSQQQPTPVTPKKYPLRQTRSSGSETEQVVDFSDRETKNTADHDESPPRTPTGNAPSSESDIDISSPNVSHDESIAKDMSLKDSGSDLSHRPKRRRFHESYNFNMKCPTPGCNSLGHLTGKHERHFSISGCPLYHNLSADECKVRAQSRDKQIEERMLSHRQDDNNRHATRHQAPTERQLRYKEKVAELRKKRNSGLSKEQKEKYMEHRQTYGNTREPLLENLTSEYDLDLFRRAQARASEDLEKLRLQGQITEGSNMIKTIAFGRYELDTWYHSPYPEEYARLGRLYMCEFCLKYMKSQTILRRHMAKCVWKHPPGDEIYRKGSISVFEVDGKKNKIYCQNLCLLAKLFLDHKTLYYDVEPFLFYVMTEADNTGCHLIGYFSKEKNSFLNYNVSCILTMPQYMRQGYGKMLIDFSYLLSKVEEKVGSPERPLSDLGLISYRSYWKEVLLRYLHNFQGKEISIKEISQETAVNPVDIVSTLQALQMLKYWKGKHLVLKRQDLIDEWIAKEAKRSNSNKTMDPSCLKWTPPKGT
KAT6A, sequence (Q92794 whole entry): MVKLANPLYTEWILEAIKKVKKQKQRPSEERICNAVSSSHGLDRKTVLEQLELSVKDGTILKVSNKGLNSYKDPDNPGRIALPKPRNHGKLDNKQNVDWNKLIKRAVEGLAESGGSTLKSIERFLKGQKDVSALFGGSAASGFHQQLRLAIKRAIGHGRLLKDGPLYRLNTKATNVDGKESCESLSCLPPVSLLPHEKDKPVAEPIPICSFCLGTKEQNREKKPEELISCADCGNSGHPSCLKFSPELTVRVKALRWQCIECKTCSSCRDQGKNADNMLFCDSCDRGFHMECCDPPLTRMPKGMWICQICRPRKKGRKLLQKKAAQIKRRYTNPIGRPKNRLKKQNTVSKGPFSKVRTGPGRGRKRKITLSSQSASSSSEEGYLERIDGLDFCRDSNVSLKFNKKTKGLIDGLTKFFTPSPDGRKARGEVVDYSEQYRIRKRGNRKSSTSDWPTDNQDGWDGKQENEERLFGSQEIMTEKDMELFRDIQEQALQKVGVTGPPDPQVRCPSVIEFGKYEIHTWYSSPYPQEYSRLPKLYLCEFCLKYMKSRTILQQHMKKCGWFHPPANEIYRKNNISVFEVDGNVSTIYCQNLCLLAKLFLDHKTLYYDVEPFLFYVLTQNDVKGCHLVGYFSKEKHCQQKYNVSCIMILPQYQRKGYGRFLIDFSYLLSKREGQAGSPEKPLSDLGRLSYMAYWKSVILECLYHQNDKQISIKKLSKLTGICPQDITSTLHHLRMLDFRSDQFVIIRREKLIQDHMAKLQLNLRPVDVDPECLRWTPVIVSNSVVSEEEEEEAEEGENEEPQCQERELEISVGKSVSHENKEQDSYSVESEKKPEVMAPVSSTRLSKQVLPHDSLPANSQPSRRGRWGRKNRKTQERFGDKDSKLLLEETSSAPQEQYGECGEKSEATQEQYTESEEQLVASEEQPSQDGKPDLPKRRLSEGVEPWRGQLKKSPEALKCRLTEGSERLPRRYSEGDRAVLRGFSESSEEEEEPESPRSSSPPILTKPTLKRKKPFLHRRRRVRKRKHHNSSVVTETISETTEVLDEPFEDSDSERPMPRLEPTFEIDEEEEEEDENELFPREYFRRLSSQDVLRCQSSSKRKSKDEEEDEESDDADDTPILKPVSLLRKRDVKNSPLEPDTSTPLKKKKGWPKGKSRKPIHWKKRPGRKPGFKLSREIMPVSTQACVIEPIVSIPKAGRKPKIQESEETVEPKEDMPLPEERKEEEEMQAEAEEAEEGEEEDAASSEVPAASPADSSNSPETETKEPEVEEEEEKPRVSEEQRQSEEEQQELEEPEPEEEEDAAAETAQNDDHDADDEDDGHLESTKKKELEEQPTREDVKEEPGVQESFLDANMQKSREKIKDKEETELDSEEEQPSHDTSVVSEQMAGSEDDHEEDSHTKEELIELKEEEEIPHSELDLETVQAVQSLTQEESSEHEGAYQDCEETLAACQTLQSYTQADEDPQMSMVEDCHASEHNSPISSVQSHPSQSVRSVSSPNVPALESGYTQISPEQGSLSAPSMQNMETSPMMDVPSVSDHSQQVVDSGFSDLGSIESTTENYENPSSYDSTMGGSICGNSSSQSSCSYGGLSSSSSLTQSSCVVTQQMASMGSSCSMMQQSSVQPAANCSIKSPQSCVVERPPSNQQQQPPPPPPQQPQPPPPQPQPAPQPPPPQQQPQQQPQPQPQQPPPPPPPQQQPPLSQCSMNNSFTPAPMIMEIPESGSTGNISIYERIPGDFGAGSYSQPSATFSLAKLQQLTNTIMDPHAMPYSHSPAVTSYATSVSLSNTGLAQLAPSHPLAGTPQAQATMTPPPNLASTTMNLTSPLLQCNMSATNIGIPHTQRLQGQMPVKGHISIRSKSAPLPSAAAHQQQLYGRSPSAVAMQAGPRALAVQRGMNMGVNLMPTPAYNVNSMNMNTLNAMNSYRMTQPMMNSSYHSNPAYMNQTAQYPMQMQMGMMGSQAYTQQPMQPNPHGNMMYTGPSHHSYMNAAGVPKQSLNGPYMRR
KAT5, sequence (Q92993 whole entry): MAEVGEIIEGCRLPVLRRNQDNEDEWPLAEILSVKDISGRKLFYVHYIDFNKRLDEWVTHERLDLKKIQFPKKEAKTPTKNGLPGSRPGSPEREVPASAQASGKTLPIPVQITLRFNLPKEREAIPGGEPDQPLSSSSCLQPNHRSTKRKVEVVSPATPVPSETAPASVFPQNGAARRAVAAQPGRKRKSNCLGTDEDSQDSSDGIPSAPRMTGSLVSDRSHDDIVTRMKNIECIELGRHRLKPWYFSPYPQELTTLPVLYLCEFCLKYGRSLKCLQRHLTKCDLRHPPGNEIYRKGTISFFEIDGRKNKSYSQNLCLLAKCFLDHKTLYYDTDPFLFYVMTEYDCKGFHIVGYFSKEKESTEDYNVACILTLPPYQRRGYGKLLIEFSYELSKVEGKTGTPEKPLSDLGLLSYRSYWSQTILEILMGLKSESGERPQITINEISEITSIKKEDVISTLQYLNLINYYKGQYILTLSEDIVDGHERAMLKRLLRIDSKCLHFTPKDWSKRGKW
KAT8, sequence (Q9H7Z6 whole entry): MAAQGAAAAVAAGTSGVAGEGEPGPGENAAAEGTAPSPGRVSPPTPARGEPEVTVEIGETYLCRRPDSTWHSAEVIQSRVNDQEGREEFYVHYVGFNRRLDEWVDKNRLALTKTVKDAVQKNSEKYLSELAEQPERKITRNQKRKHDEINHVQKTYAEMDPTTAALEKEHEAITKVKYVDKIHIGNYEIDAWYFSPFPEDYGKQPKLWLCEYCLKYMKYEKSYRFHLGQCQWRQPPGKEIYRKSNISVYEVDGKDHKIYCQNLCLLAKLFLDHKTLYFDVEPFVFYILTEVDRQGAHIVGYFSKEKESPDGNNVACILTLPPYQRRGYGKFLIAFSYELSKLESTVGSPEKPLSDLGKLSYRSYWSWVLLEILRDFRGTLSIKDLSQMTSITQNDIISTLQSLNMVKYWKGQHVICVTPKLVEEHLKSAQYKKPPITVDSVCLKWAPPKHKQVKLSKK
TIP60-KAT5, sequence (Q92993 other isoform, or with tags, fused parts or gaps): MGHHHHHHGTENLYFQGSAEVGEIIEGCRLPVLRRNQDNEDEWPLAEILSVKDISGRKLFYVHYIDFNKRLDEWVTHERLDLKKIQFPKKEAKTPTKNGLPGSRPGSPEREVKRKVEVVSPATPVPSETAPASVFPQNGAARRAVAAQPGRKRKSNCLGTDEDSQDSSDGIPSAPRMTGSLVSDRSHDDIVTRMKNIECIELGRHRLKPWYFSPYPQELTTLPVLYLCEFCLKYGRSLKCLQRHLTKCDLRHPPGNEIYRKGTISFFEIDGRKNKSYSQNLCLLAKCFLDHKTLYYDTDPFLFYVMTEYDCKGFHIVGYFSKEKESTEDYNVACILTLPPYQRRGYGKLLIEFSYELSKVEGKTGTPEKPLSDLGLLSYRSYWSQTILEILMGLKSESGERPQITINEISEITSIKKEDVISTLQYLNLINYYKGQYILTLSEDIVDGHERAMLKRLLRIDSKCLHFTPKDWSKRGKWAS
HBO1-KAT7, sequence (O95251 other isoform, or with tags, fused parts or gaps): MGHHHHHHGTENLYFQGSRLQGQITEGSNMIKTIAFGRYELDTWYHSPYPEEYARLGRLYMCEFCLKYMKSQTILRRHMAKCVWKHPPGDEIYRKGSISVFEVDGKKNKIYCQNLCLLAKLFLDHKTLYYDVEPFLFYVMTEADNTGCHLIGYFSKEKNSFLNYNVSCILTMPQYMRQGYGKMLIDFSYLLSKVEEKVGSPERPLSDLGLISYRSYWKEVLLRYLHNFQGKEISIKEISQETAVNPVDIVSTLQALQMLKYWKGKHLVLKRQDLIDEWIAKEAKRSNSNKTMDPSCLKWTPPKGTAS

Row | SMILES | Ki [1, 11] [µM] | Ki [2, 12] [µM] | Ki [3, 13] [µM] | Ki [4, 14] [µM] | Ki [5, 15] [µM] | Ki [5, 16] [µM] | other results
1 | COc1cccc(OC)c1S(=O)(=O)Nc1noc2cc(Cn3cccn3)c(C)cc12 [Example 27] | 0.53 | 0.22 | 0.00239 | 0.05 | 0.00117 | 0.00068 | 
2 | COc1cccc(OC)c1S(=O)(=O)Nc1noc2cc(Cn3cccn3)ccc12 [Example 28] | 3.26 | 3.05 | 0.00506 | 0.45 | 0.0044 |  | 
3 | CCOc1cc(C)ccc1S(=O)(=O)Nc1noc2cc(Cn3cccn3)cc(OC)c12 [Example 50] | 0.35 | 0.26 | 0.00098 | 0.02 | 0.00046 | 0.0004 | 
4 | CCOc1ccccc1S(=O)(=O)Nc1noc2cc(Cn3cccn3)cc(OC)c12 [Example 51] | 1.11 | 0.77 | 0.00413 | 0.09 | 0.00271 | 0.00167 | 
5 | COc1cc(Cn2cccn2)cc2onc(NS(=O)(=O)c3cccc4c(C)ccnc34)c12 [Example 61] | 0.54 | 0.2 | 0.00156 | 0.04 | 0.00095 | 0.00092 | 
6 | COc1cc(Cn2cccn2)cc2onc(NS(=O)(=O)c3cccc(C)c3F)c12 [Example 70] | 3.26 | 0.41 | 0.0019 | 0.14 | 0.00228 | 0.00327 | 
7 | COc1cc(Cn2cccn2)cc2onc(NS(=O)(=O)c3c(C)ccc4cccnc34)c12 [Example 73] | 3.26 | 0.71 | 0.00136 | 0.25 | 0.00231 | 0.0017 | 
8 | COc1cc(Cn2cccn2)cc2onc(NS(=O)(=O)c3cc(C)cc(F)c3)c12 [Example 75] | 12.5 | 5.7 | 0.0138 | 0.32 | 0.00913 | 0.00642 | 
9 | COc1cc(Cn2cccn2)cc2onc(NS(=O)(=O)c3cccc(C)c3C#N)c12 [Example 76] | 12.5 | 4.38 | 0.0601 | 0.33 | 0.00789 | 0.00362 | 
10 | COc1cc(Cn2cccn2)cc2onc(NS(=O)(=O)c3ccc(C(F)F)cc3)c12 [Example 77] | 12.5 | 8.45 | 0.0296 | 0.46 | 0.00856 | 0.0119 | 
11 | COc1cc(Cn2cccn2)cc2onc(NS(=O)(=O)c3cc(C)c(F)c(C)c3)c12 [Example 78] | 12.5 | 9.92 | 0.026 | 0.54 | 0.00564 | 0.00573 | 
12 | COc1cc(Cn2cccn2)cc2onc(NS(=O)(=O)c3ccc(C)c(F)c3)c12 [Example 79] | 3.26 | 1.44 | 0.00427 | 0.22 | 0.00511 | 0.00498 | 
13 | COc1cccc(OC)c1S(=O)(=O)Nc1noc2cc(Cn3cc(CO)cn3)cc(OC)c12 [Example 87, N-(6-{[4-(hydroxymethyl)-1H-pyrazol-1-yl]methyl}-4-methoxy-1,2-benzoxazol-3-yl)-2,6-dimethoxybenzene-1-sulfonamide] | 17.9 | 10.8 |  | 1.84 | 0.0386 |  | Ki ([3]; read-out: KAT6b Ki at 1 μM AcCoA, 1 μM AcCoA): 0.133 µM
14 | COc1cccc(OC)c1S(=O)(=O)Nc1noc2cc(Cn3cccn3)c(Br)cc12 [Example 92, N-{5-bromo-6-[(1H-pyrazol-1-yl)methyl]-1,2-benzoxazol-3-yl}-2,6-dimethoxybenzene-1-sulfonamide] | 0.24 | 0.11 | 0.00273 | 0.03 | 0.00107 | 0.00045 | 
15 | COc1cccc(OC)c1S(=O)(=O)Nc1noc2cc(Cn3cccn3)cc(F)c12 [Example 94] | 3.26 | 3.64 | 0.0025 | 0.63 | 0.00515 |  | 
16 | CCc1cc(Cn2cccn2)cc2onc(NS(=O)(=O)c3c(OC)cccc3OC)c12 [Example 95, N-{4-ethyl-6-[(1H-pyrazol-1-yl)methyl]-1,2-benzoxazol-3-yl}-2,6-dimethoxybenzene-1-sulfonamide] | 3.26 | 12.5 | 0.00835 | 4.34 | 0.00988 |  | 
17 | COc1cc(Cn2cccn2)cc2onc(NS(=O)(=O)c3cccc4cc(C)cnc34)c12 [Example 99, N-(6-((1H-pyrazol-1-yl)methyl)-4-methoxybenzo[d]isoxazol-3-yl)-3-methylquinoline-8-sulfonamide] |  |  |  |  |  |  | IC50 [6]: 11.4 µM; IC50 [7]: 0.013 µM; IC50 [8]: 0.98 µM; IC50 [9]: 0.12 µM; IC50 [10]: 1.55 µM
18 | COc1cccc(OC)c1S(=O)(=O)Nc1noc2cc(-c3cnn(C)c3)cc(OC)c12 [Example 101, 2,6-dimethoxy-N-(4-methoxy-6-(1-methyl-1H-pyrazol-4-yl)benzo[d]isoxazol-3-yl)benzenesulfonamide] |  |  |  |  |  |  | IC50 [7]: 1.26 µM; IC50 [8]: 11.2 µM; IC50 [9]: 1.55 µM

Second part, led by results:

Row | Ki [1, 11] [µM] | Ki [2, 12] [µM] | Ki [3, 13] [µM] | Ki [4, 14] [µM] | Ki [5, 15] [µM] | Ki [5, 16] [µM] | SMILES | other results
19 | 1.01 | 0.18 | 0.0014 | 0.06 | 0.00053 |  | COc1cc2c(cc1S(=O)(=O)Nc1noc3cc(Cn4cccn4)cc(OC)c13)CCC2 [Example 29] | 
20 |  |  | 0.00155 |  |  |  | COc1ccccc1S(=O)(=O)Nc1noc2cc(Cn3cccn3)cc(OC)c12 [Example 45, 2-methoxy-N-{4-methoxy-6-[(1H-pyrazol-1-yl)methyl]-1,2-benzoxazol-3-yl}benzene-1-sulfonamide] | Ki ([1]; 1 μM AcCoA): 0.9 µM; Ki ([2]; 1 μM AcCoA): 0.32 µM; Ki ([3]; KAT6b Ki at 1 μM AcCoA, 1 μM AcCoA): 0.00211 µM; Ki ([4]; KAT7 Ki at 1 μM AcCoA): 0.09 µM; Ki ([5]; KAT6a Ki at 1 μM AcCoA, 1 μM AcCoA): 0.00228 µM
21 | 0.56 | 0.18 | 0.00132 | 0.04 | 0.00114 | 0.00049 | COc1cc(C)ccc1S(=O)(=O)Nc1noc2cc(Cn3cccn3)cc(OC)c12 [Example 47] | 
22 | 12.5 | 3.06 | 0.0121 | 0.22 | 0.00604 | 0.00444 | COc1cc(Cn2cccn2)cc2onc(NS(=O)(=O)c3ccc(C)cc3F)c12 [Example 65] | 
23 | 1.44 | 0.32 | 0.00281 | 0.03 | 0.00118 | 0.00117 | COc1cc(Cl)ccc1S(=O)(=O)Nc1noc2cc(Cn3cccn3)cc(OC)c12 [Example 71] | 
24 | 12.5 | 2.96 | 0.00697 | 0.14 | 0.00286 | 0.00236 | COc1cc(Cn2cccn2)cc2onc(NS(=O)(=O)c3ccc(C)c(C)c3)c12 [Example 72] | 
25 | 12.5 | 4.63 | 0.0123 | 0.19 | 0.00786 | 0.00561 | COc1ccc(S(=O)(=O)Nc2noc3cc(Cn4cccn4)cc(OC)c23)cc1C [Example 84] | 
26 | 12.5 | 11.7 | 0.00367 | 0.9 | 0.00158 |  | COc1cccc(OC)c1S(=O)(=O)Nc1noc2cc(Cn3cccn3)cc(C3CC3)c12 [Example 96] | 
27 | 1.51 | 1.03 | 0.00274 | 0.12 | 0.0011 |  | COc1ccc(C2CC2)cc1S(=O)(=O)Nc1noc2cc(Cn3cccn3)cc(OC)c12 [Example 97, 5-cyclopropyl-2-methoxy-N-{4-methoxy-6-[(1H-pyrazol-1-yl)methyl]-1,2-benzoxazol-3-yl}benzene-1-sulfonamide] | 
